These results are taken from patent US12319752B2, “Heparin-binding cationic peptide self-assembling peptide amphiphiles useful against drug-resistant bacteria” (priority 2016, dated 2025).

The test system of this data set is human dermal fibroblasts (HDF). As to the kind of experiment: Cytotoxicity, MTS cell viability assay. It is filed as cell-based. As to conditions: HDF, concentrations higher than 20 μM, 24 h. As for the experimental part: To evaluate the cytotoxicity of the peptides, human dermal fibroblasts (HDF) were treated for 24 h, and cell viability was determined via MTS assays (FIG. 13).
Human dermal fibroblast cells (HDF, Detroit 551, ATCC #CCL-110) were cultured in Dulbecco's modified Eagle medium (DMEM; Fisher, Pittsburgh, PA) supplemented with 10% fetal bovine serum (FBS) and 1% penicillin/streptomycin for 24 h. All cells were cultured to 90% confluence in a 37° C., humidified, 5% CO2/95% air environment. Cells at passage numbers of 4-7 were used in these experiments.
The MTS cell viability assay kit (Promega, Madison, WI, USA) was used to determine cytotoxicity of the peptides. First, HDF cells were seeded on a 96-well plate at a cell density of 5,000 cells/well (equal to 15,385 cells/cm^2), and were incubated overnight for cell adhesion. After overnight incubation, the cell medium in each well was replaced by 100 μL of cell culture medium containing various concentrations of peptides (20 μM to 100 μM). The control samples were cells incubated in cell culture medium only. After 24 h, the treatment medium in each well was removed. The cells were washed with phosphate buffered saline (PBS, pH=7.4, Fisher, PA, USA) and 100 μL of fresh cell culture medium was added to each well, followed by the addition of 20 μL of the MTS reagent. After the cells were incubated for 2.5 h, the absorbance was measured at a wavelength of 490 nm by a spectrophotometer (SpectraMax M3, Molecular Devices, Molecular Devices, Sunnyvale, CA, USA). To estimate the cell numbers in each well, a standard curve expressing the linear correlation between different cell densities and optical densities (R^2>0.95) was plotted, and the cell numbers were determined with this standard curve from the OD490 value recorded in each sample. The cell viability of each sample was calculated by: Cell viability=[(cell density per mL of treated sample)/(cell density per mL of control sample)]×100%. Data were expressed by standard error of the mean (±S.E.M.) and N=3, *p<0.05 compared with control samples.
(In general: Formazan colour is commonly taken as a measure of viable cells.)

Residues, ends and D or L forms follow the SMILES beside them. *: point of attachment. Palmitoyl = CCCCCCCCCCCCCCCC(=O)*

On to `CCCCCCCCCCCCCCCC(=O)N[C@H](C(=O)N[C@H](C(=O)N[C@H](C(=O)N[C@H](C(=O)N[C@@H](CCCCN)C(=O)N[C@@H](CCCCN)C(=O)N[C@@H](CCCCN)C(=O)N[C@@H](CCCCN)C(=O)O)C(C)C)C(C)C)C(C)C)C(C)C` [CVK-PA, C16-V4K4 (SEQ ID NO: 1), reference compound] (Palmitoyl-VVVVKKKK-OH), for which the cell death entry is recorded as “over 40%”.
